Measurements from patent publication US4675428A, “Sulfonic acid ester derivatives useful as antilipemic agents” (Taiho Pharmaceutical Company, Limited, priority 1982, dated 1987).

Experiments:
[1] = Heat-stability on storage at 40° C. (HPLC content of undecomposed compound); assay type: physicochemical; conditions: for remaining at 288 h / remaining at 360 h: solid storage; for remaining at 288 h: 12th day; for remaining at 360 h: 15th day; for Content (%) Start: start (initial content)
Procedure: The following compounds (200 mg each) were placed in transparent sample bottles, and left to stand at a constant temperature of 40° C. for 15 days. Thereafter, they were checked for the heat-stability by determining the change of content of the compounds which remained not decomposed as of the 12th and 15th day. The content was measured by high performance liquid chromatography using a 60:40 mixture of acetonitrile and water as an eluent, and the percentages of the content of the undecomposed compound were calculated based on the initial content.

plasma triglycerides = assay: Antilipemic effect (plasma triglycerides after oral olive oil); assay type: in vivo, male Wistar rats; conditions: Wistar rats, oral in olive oil (100 mg in 5 ml, 5 ml/kg), plasma 2 h after dosing
Procedure: Seven-week-old male Wistar rats weighing 200 to 220 g are used, 5 rats in each group.
The compound of the invention (100 mg) is dissolved in 5 ml of olive oil. The olive oil containing the compound is orally given to the rat with a probe at a dose of 5 ml/kg. Two hours thereafter, 6 ml of whole blood is withdrawn from the descending aorta of the rat under ether anesthesia with a syringe containing heparin. The blood is centrifuged at 5° C. and 3000 r.p.m. to obtain the plasma.
The plasma collected is used for determining the triglycerides content, using a triglycerides measuring kit (trade mark "Triglycerides-B Test Wako," product of Wako Junyaku Co., Ltd., Japan). Olive oil containing no compound is similarly given to a control group, while no treatment is conducted for a normal group. The triglycerides content in the plasma is also determined for these groups in the same manner as is the case with the test groups.
The percent hyperlipidemia inhibition achieved by the present compound is given by
Percent inhibitaion=(A-C/A-B)×100
in which A is the triglycerides content of the control group, B is the triglycerides content of the normal group, and C is the triglycerides content of the group to which the present compound is given.

[2] = target: esterase solution prepared from a purified microsome fraction of the liver of a rat; assay: Esterase inhibiting activity (hydrolysis of methyl butyrate); assay type: biochemical; conditions: pH 8.0, 37° C., 60 min
Procedure: 1. Esterase inhibiting activity
A 10 micromole quantity of methyl butyrate in a 50% ethanol solution is added as a substrate to a specified amount of buffer solution containing 0.1 mole of trishydrochloric acid (pH 8.0). To the mixture is further added a 50% ethanol solution of the compound of the invention, immediately followed by addition of an esterase solution prepared from a purified microsome fraction of the liver of a rat (adjusted to hydrolyze 9 micromoles of methyl butyrate at 37° C. in one hour) as an enzyme solution. The mixture is reacted at 37° C. for 60 minutes.
After the reaction, alkaline hydroxylamine is added to the mixture to form a hydroxamic acid derivative of methyl butyrate, and a ferric salt is added to the derivative. The resulting red color is colorimetrically determined (at a wavelength of 540 nm) to determine the amount of remaining methyl butyrate. The esterase inhibiting ratios of the present compound at (at least three) different concentrations are plotted as ordinate, and the logarithms of the concentrations as abscissa to obtain a line, which gives the 50% inhibition concentration (IC50).

chymotripsin = chymotripsin (Bos taurus, UniProt P00766); assay: Chymotripsin inhibiting activity (ATEE hydrolysis); assay type: biochemical; conditions: 1 × 10^-4 mole; pH 8.0, 37° C., ATEE substrate
Procedure: 2. Chymotripsin inhibiting activity
An enzyme solution (0.1 unit of chymotripsin) is added to a specified quantity of buffer solution containing 0.1 mole of trishydrochloric acid (pH 8.0). To the mixture is further added a 50% ethanol solution of the compound of the invention, and the resulting mixture is reacted at 37° C. for 20 minutes.
On completion of the reaction, 10 micromoles of N-acetyl-L-thyrosine (ATEE) serving as a substrate is added to the mixture, and the resulting mixture is reacted at 37° C. for 30 minutes. After the completion of the reaction, the amount of remaining ATEE is determined by the same hydroxamic acid method as used in the method of determining the esterase inhibiting activity. The percent chymotripsin inhibition is given by
Percent inhibition=(A-B/A)×100
wherein A is the amount of hydrolyzed esters in the reaction system not containing the compound of the invention, and B is the amount of hydrolyzed esters in the reaction system containing the present compound.

Compound	remaining at 288 h [1] [%]	remaining at 360 h [1] [%]	Content (%) Start [1] [%]	Antilipemic TG inhibition (%) (plasma triglycerides)	IC50 [2] [nM]	Chymotripsin inhibition (%) (chymotripsin)
Cc1ccc(S(=O)(=O)OCC(=O)[C@H]2CC[C@H](C(C)(C)C)CC2)cc1 [Compound C-2]	93	16	100			
CC(C)[C@H]1CC[C@H](C(=O)COS(=O)(=O)c2ccccc2)CC1 [Compound C-1]	92	14	100			
O=C(COS(=O)(=O)c1ccccc1)C1CCCCC1 [Compound C-5]	85	15	100			
CC(C)[C@H]1CC[C@](C)(C(=O)COS(=O)(=O)c2ccccc2)CC1 [Compound 7]				72.0	16	26
O=C(COS(=O)(=O)c1ccccc1)C1CCC2(CCCC2)CC1 [Compound 22]				84.2	22	41
CC(C)C[C@H]1CC[C@](C)(C(=O)COS(=O)(=O)c2ccccc2)CC1 [Compound 11]				70.5	2200	15
Cc1cc(C)c(S(=O)(=O)OCC(=O)C2(C)CCC(C(C)C)CC2)c(C)c1 (stereo not shown) [Compound T-6]	100	100	100			
Cc1cc(C)c(S(=O)(=O)OCC(=O)C2CCC(C(C)C)CC2)c(C)c1 (stereo not shown) [Compound C-3]	95	40	100			
CCOc1ccc(S(=O)(=O)OCC(=O)C2CCC(CC)CC2)cc1 (stereo not shown) [Compound C-4]	91	15	100			
O=C(CCC1CCCCC1)COS(=O)(=O)c1ccccc1 [Compound C-8]	72	19	100			
COc1ccc(S(=O)(=O)OCC(=O)C2(C)CCC(CC(C)C)CC2)cc1 (stereo not shown) [Compound T-13]	100	100	100			
CC1(C)CCC(C(=O)COS(=O)(=O)c2ccccc2)CC1 [Compound 16, 1-(benzenesulfonyloxy)-2-(4,4-dimethylcyclohexyl)-2-ethanone]				77.5	5.8	71
CC[C@H]1CC[C@@](CC)(C(=O)COS(=O)(=O)c2ccccc2)CC1 [Compound 1]					35000	12
CCCC1(C)CCC(C(=O)COS(=O)(=O)c2ccccc2)CC1 (stereo not shown) [Compound 19]				95.4	4.2	34
COc1ccc(S(=O)(=O)OCC(=O)C2CCC(C)(C)CC2)cc1 [Compound 18]					2500	
CC(C)[C@H]1CC[C@@](C)(C(=O)COS(=O)(=O)c2ccccc2)CC1 [Compound 5]				49.0	33000	14
Cc1ccc(S(=O)(=O)OCC(=O)C2CCC3(CCCC3)CC2)cc1 [Compound 23]					3000	
Cc1ccc(S(=O)(=O)OCC(=O)C2(C)CCC(C(C)C)CC2)cc1 (stereo not shown) [Compound T-8]	100	100	100			
CC(C)[C@H]1CC[C@](C)(C(=O)COS(=O)(=O)c2ccccc2)CC1 [Compound T-7]	100	100	100			
Cc1ccc(S(=O)(=O)OCC(=O)C2(C)CCC(C(C)C)CC2)cc1 (stereo not shown) [Compound 8]					560	35
Cc1cc(C)c(S(=O)(=O)OCC(=O)C2CCC(C)(C)CC2)c(C)c1 [Compound 17]					2	
CCOc1ccc(S(=O)(=O)OCC(=O)C2CCCCC2)cc1 [Compound C-6]	80	14	100			
O=C(COS(=O)(=O)c1ccccc1)C1CCC2(CCCCC2)CC1 [Compound 24]				93.5	5.4	61
CC[C@H]1CC[C@](CC)(C(=O)COS(=O)(=O)c2ccccc2)CC1 [Compound 3]				47.1	340	25
Cc1cc(C)c(S(=O)(=O)OCC(=O)C2CCCCC2)c(C)c1 [Compound C-7]	95	20	100			
